In US20250084084A1, “Crystalline form of (2R)-2-(5-fluoro-2-methoxypyridin-4-yl)-1-[(2S)-7-methyl-6-(pyrimidin-2-yl)-3,4-dihydro-1H-spiro[1,8-naphthyridine-2,3-pyrrolidin]-1-yl]propan-1-one” (Pfizer Inc., priority 2020, published 2025) one finds Kb and Ki data, which are given here for eleven molecules.

The term Kb denotes the affinity of an antagonist, worked out from how it opposes an agonist. As usually defined, the Ki is the equilibrium dissociation constant of an inhibitor or competing ligand from its target.

Read-outs that look alike come from different tables or passages of the source.

Assay [1] deals with human Melanocortin-4 receptor (MC4R) (Homo sapiens (Human), UniProt P32245). Nature of the assay: Functional in vitro MC4R antagonist potency assay (cAMP HTRF in CHO cells, αMSH EC80 stimulation). The assay is classed as cell-based. How it is done:
The functional in vitro antagonist potency for test compounds was determined by monitoring intracellular cyclic adenosine monophosphate (cAMP) levels in Chinese hamster ovary (CHO—) cells stably expressing the human Melanocortin-4 receptor (MC4R). […] The activated Ga subunit can couple to downstream effectors to regulate the levels of second messengers or cAMP within the cell. Thereby, determination of intracellular cAMP levels allows for pharmacological characterization. Intracellular cAMP levels are quantitated using a homogenous assay utilizing the Homogeneous Time-Resolved Fluorescence (HTRF) technology from CisBio. The method is a competitive immunoassay between native cAMP produced by cells and the cAMP labelled with the acceptor dye, d2. The two entities then compete for binding to a monoclonal anti-cAMP antibody labeled with cryptate. The specific signal is inversely proportional to the concentration of cAMP in the cells.
Test compounds were solubilized to 30 mM in 100% dimethyl sulfoxide (DMSO) and stored. […]
(95% O2: 5% CO2) overnight, with micro-clime lids (Labcyte, Cat No. LLS-0310). […] Intracellular cAMP levels were quantified as per Cisbio's protocol (5 uL of D2 and then 5 uL Cryptate, incubated for 1-2 hours at room temperature).
Data expressed as nM cAMP were then normalized to control wells using Activity Base (IDBS). […]
For orientation: In TR-FRET formats the signal depends on donor and acceptor labels being close together.

Assay [2] concerns the target α-melanocyte-stimulating hormone receptor (hMC4R) (Homo sapiens (Human), UniProt P32245). Nature of the assay: In vitro binding affinity assay using hMC4R (radioligand competition binding, [125I]-(Nle4, D-Phe7)-α-MSH). As to conditions: geometric mean, read-out: Ki (nM) geometric. In outline: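 Membranes from CHO cells stably expressing hMC4R (2 μg/well) incubated 2 h RT with [125I]-NDP-α-MSH and compound (300 nM-0.01 nM, 1% DMSO); 2 μM α-MSH defined nonspecific binding. Filtration and scintillation counting; Ki from IC50 via Cheng-Prusoff.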

α-melanocyte-stimulating hormone receptor (hMC4R), sequence (P32245 whole entry): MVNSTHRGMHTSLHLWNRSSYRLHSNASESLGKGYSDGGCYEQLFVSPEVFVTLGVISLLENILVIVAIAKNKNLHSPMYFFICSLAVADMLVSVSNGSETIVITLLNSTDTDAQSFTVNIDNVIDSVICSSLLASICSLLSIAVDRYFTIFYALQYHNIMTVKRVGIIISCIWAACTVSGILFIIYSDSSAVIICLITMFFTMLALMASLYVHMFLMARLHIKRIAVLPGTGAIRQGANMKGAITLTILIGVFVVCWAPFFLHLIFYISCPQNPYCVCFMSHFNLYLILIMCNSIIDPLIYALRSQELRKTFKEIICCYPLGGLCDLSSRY
human Melanocortin-4 receptor (MC4R), sequence (P32245 whole entry): as above

The molecule `COc1cc([C@@H](C)C(=O)N2CC[C@@]3(CCc4cc(Cl)c(C)nc4N3)C2)c(F)cn1` (single isomer, unassigned) [Example 103] showed a Kb in assay [1] (cAMP HTRF in CHO cells expressing human MC4R, 200 nM αMSH (EC80), Kb by Leff-Dougall equation, geometric mean) greater than 92 nM.

For `COc1cc([C@@H](C)C(=O)N2CC[C@@]3(CCc4cc(-c5cnccn5)c(C)nc4N3)C2)c(F)cn1` [Example 142, (2R)-2-(5-fluoro-2-methoxypyridin-4-yl)-1-[(2S)-7-methyl-6-(pyrazin-2-yl)-3,4-dihydro-1H-spiro[1,8-naphthyridine-2,3′-pyrrolidin]-1′-yl]propan-1-one], the Kb in assay [1] (read-out: Kb (nM) Antagonist geometric) was 3.6 nM. The Ki in assay [2] turned out to be 1.8 nM.

Regarding `COc1cc([C@@H](C)C(=O)N2CC[C@@]3(CCc4cc(-c5ccc(C6CC6)cn5)c(C)nc4N3)C2)c(F)cn1` [Example 186, (2R)-1-[(2S)-6-(5-cyclopropylpyridin-2-yl)-7-methyl-3,4-dihydro-1H-spiro[1,8-naphthyridine-2,3′-pyrrolidin]-1′-yl]-2-(5-fluoro-2-methoxypyridin-4-yl)propan-1-one], the Ki in assay [2] was 19 nM.

As to `COc1cc([C@@H](C)C(=O)N2CC[C@@]3(CCc4cc(-c5nc(N6CCOCC6)n(C)n5)c(C)nc4N3)C2)c(F)cn1` [Example 187, (2R)-2-(5-fluoro-2-methoxypyridin-4-yl)-1-{(2S)-7-methyl-6-[1-methyl-5-(morpholin-4-yl)-1H-1,2,4-triazol-3-yl]-3,4-dihydro-1H-spiro[1,8-naphthyridine-2,3′-pyrrolidin]-1′-yl}propan-1-one], in assay [2], the Ki turned out to be 5.5 nM.

Regarding `COc1cc([C@@H](C)C(=O)N2CC[C@@]3(CCc4cc(-c5nc(C)n(C(F)F)n5)c(C)nc4N3)C2)c(F)cn1` [Example 188, (2R)-1-{(2S)-6-[1-(difluoromethyl)-5-methyl-1H-1,2,4-triazol-3-yl]-7-methyl-3,4-dihydro-1H-spiro[1,8-naphthyridine-2,3′-pyrrolidin]-1′-yl}-2-(5-fluoro-2-methoxypyridin-4-yl)propan-1-one], the Ki in assay [2] was 0.41 nM.

In the case of `COc1cc([C@@H](C)C(=O)N2CC[C@@]3(CCc4cc(-c5nc(C(F)F)n(C6CC6)n5)c(C)nc4N3)C2)c(F)cn1` [Example 189, (2R)-1-{(2S)-6-[1-cyclopropyl-5-(difluoromethyl)-1H-1,2,4-triazol-3-yl]-7-methyl-3,4-dihydro-1H-spiro[1,8-naphthyridine-2,3′-pyrrolidin]-1′-yl}-2-(5-fluoro-2-methoxypyridin-4-yl)propan-1-one], the Ki in assay [2] was determined as 1.3 nM.

In the case of `COc1cc([C@@H](C)C(=O)N2CC[C@@]3(CCc4cc(-c5ccnc(N6CCOCC6)n5)c(C)nc4N3)C2)c(F)cn1` [Example 196, (2R)-2-(5-fluoro-2-methoxypyridin-4-yl)-1-{(2S)-7-methyl-6-[2-(morpholin-4-yl)pyrimidin-4-yl]-3,4-dihydro-1H-spiro[1,8-naphthyridine-2,3′-pyrrolidin]-1′-yl}propan-1-one], the inhibition constant (Ki) in assay [2] came out at 8.1 nM.

For the molecule `COc1cc([C@@H](C)C(=O)N2CC[C@@]3(CCc4cc(-c5cccc(OC(F)F)n5)c(C)nc4N3)C2)c(F)cn1` [Example 198, (2R)-1-{(2S)-6-[6-(difluoromethoxy)pyridin-2-yl]-7-methyl-3,4-dihydro-1H-spiro[1,8-naphthyridine-2,3′-pyrrolidin]-1′-yl}-2-(5-fluoro-2-methoxypyridin-4-yl)propan-1-one], in assay [2], the Ki was 2.5 nM.

For the molecule `COc1cc([C@@H](C)C(=O)N2CC[C@@]3(CCc4cc(-c5ccc(C6CC6)nn5)c(C)nc4N3)C2)c(F)cn1` [Example 199, (2R)-1-[(2S)-6-(6-cyclopropylpyridazin-3-yl)-7-methyl-3,4-dihydro-1H-spiro[1,8-naphthyridine-2,3′-pyrrolidin]-1′-yl]-2-(5-fluoro-2-methoxypyridin-4-yl)propan-1-one], the inhibition constant (Ki) in assay [2] amounted to 15 nM.

As to `COc1cc([C@@H](C)C(=O)N2CC[C@@]3(CCc4cc(-c5nccc(C(F)F)n5)c(C)nc4N3)C2)c(F)cn1` [Example 200, (2R)-1-{(2S)-6-[4-(difluoromethyl)pyrimidin-2-yl]-7-methyl-3,4-dihydro-1H-spiro[1,8-naphthyridine-2,3′-pyrrolidin]-1′-yl}-2-(5-fluoro-2-methoxypyridin-4-yl)propan-1-one], the inhibition constant (Ki) in assay [2] is 0.82 nM.

On to `COc1cc([C@@H](C)C(=O)N2CC[C@@]3(CCc4cc(-c5ncc(C(F)(F)F)s5)c(C)nc4N3)C2)c(F)cn1` [Example 201, (2R)-2-(5-fluoro-2-methoxypyridin-4-yl)-1-{(2S)-7-methyl-6-[5-(trifluoromethyl)-1,3-thiazol-2-yl]-3,4-dihydro-1H-spiro[1,8-naphthyridine-2,3′-pyrrolidin]-1′-yl}propan-1-one], for which, in assay [2], the inhibitory constant (Ki) was found to be 110 nM.
